{"source": "patent US20210181179A1", "about": "“DIAGNOSIS AND TREATMENT OF IMMUNOTHERAPY-INDUCED NEUROTOXICITY” (MEMORIAL SLOAN KETTERING CANCER CENTER, priority 2018, published 2021)", "key": {"CCRF-SB (B-ALL)": {"test_system": "CCRF-SB (B-ALL)", "assay": "Net production of TRP metabolites in media samples, CCRF-SB", "assay_type": "cell-based"}, "DOAY (medulloblastoma)": {"test_system": "DOAY (medulloblastoma)", "assay": "Net production of TRP metabolites in media samples, DOAY", "assay_type": "cell-based"}, "SUP-B15 (B-ALL)": {"test_system": "SUP-B15 (B-ALL)", "assay": "Net production of TRP metabolites in media samples, SUP-B15", "assay_type": "cell-based"}, "CCF-STTG1 (astrocytoma)": {"test_system": "CCF-STTG1 (astrocytoma)", "assay": "Net production of TRP metabolites in media samples, CCF-STTG1", "assay_type": "cell-based, human", "from_the_text": "(§1) Under physiological conditions in the brain, kynurenine metabolism is driven by microglial cells and astrocytes with preferential production of QUIN and KA respectively. […] This may have been due to T cells producing cytokines and/or intermediate metabolites that are further metabolized to QUIN by the cells. In order to identify specific factors that may lead to tryptophan-kynurenine pathway up-regulation for QUIN production, we tested a panel of cytokine and chemokines implicated in NTX and CRS. […] We initially evaluated the panel of the select factors individually (FIGS. 16 A-B). We selected several cytokines based on their effect on rate-limiting enzymes for QUIN production. These included IFNγ, TNF, […], CXCL10 and […]. These enzymes were selected based on their regulation of key enzymes, KMO and KYNU, which may lead to supraphysiological accumulation of QUIN. These factors were further evaluated, individually or in combination, on astrocytoma, microglial, and primary monocyte-derived macrophages for mRNA levels of kynurenine pathway enzymes and kynurenine metabolites production (FIG. 17)."}, "ALL3.1 (B-ALL)": {"test_system": "ALL3.1 (B-ALL)", "assay": "Net production of TRP metabolites in media samples, ALL3.1", "assay_type": "cell-based"}, "RS4; 11 (B-ALL)": {"test_system": "RS4; 11 (B-ALL)", "assay": "Net production of TRP metabolites in media samples, RS4; 11", "assay_type": "cell-based"}, "HMC3 (microglia)": {"test_system": "HMC3 (microglia)", "assay": "Net production of TRP metabolites in media samples, HMC3", "assay_type": "cell-based, human", "from_the_text": "as §1"}, "THP-1 (monocyte)": {"test_system": "THP-1 (monocyte)", "assay": "Net production of TRP metabolites in media samples, THP-1", "assay_type": "cell-based"}, "BV173 (B-ALL)": {"test_system": "BV173 (B-ALL)", "assay": "Net production of TRP metabolites in media samples, BV173", "assay_type": "cell-based"}, "KARPAS231 (B-ALL)": {"test_system": "KARPAS231 (B-ALL)", "assay": "Net production of TRP metabolites in media samples, KARPAS231", "assay_type": "cell-based"}, "HCN2 (cortical neuron)": {"test_system": "HCN2 (cortical neuron)", "assay": "Net production of TRP metabolites in media samples, HCN2", "assay_type": "cell-based"}}}
{"substance": "IFNα", "values": [{"measurement": "Net production of TRP metabolites in media samples: 3-HK", "setting": "CCRF-SB (B-ALL)", "result": "1.16 ± 6.5"}, {"measurement": "Net production of TRP metabolites in media samples: HAA", "setting": "CCRF-SB (B-ALL)", "result": "5.3 ± 0.2"}, {"measurement": "Net production of TRP metabolites in media samples: KA", "setting": "CCRF-SB (B-ALL)", "result": "−6.78 ± 4^"}, {"measurement": "Net production of TRP metabolites in media samples: KYN", "setting": "CCRF-SB (B-ALL)", "result": "93.56 ± 90.1"}, {"measurement": "Net production of TRP metabolites in media samples: QUIN", "setting": "CCRF-SB (B-ALL)", "result": "−47.16 ± 28.1"}, {"measurement": "Net production of TRP metabolites in media samples: 3-HK", "setting": "DOAY (medulloblastoma)", "result": "−13.46 ± 0.5"}, {"measurement": "Net production of TRP metabolites in media samples: HAA", "setting": "DOAY (medulloblastoma)", "result": "11.62 ± 0.8"}, {"measurement": "Net production of TRP metabolites in media samples: KA", "setting": "DOAY (medulloblastoma)", "result": "10.28 ± 3.2"}, {"measurement": "Net production of TRP metabolites in media samples: KYN", "setting": "DOAY (medulloblastoma)", "result": "263.2 ± 20^"}, {"measurement": "Net production of TRP metabolites in media samples: QUIN", "setting": "DOAY (medulloblastoma)", "result": "54.5 ± 21.8"}, {"measurement": "Net production of TRP metabolites in media samples: 3-HK", "setting": "SUP-B15 (B-ALL)", "result": "19.38 ± 16.3"}, {"measurement": "Net production of TRP metabolites in media samples: HAA", "setting": "SUP-B15 (B-ALL)", "result": "7.32 ± 1.1"}, {"measurement": "Net production of TRP metabolites in media samples: KA", "setting": "SUP-B15 (B-ALL)", "result": "−10.36 ± 4.4"}, {"measurement": "Net production of TRP metabolites in media samples: KYN", "setting": "SUP-B15 (B-ALL)", "result": "292.4 ± 186.6"}, {"measurement": "Net production of TRP metabolites in media samples: QUIN", "setting": "SUP-B15 (B-ALL)", "result": "−79.6 ± 31.2"}, {"measurement": "Net production of TRP metabolites in media samples: 3-HK", "setting": "CCF-STTG1 (astrocytoma)", "result": "−13.12 ± 0.55"}, {"measurement": "Net production of TRP metabolites in media samples: HAA", "setting": "CCF-STTG1 (astrocytoma)", "result": "10.54 ± 0.8"}, {"measurement": "Net production of TRP metabolites in media samples: KA", "setting": "CCF-STTG1 (astrocytoma)", "result": "3.46 ± 1"}, {"measurement": "Net production of TRP metabolites in media samples: KYN", "setting": "CCF-STTG1 (astrocytoma)", "result": "4734.38 ± 128"}, {"measurement": "Net production of TRP metabolites in media samples: QUIN", "setting": "CCF-STTG1 (astrocytoma)", "result": "15.16 ± 5.5"}, {"measurement": "Net production of TRP metabolites in media samples: 3-HK", "setting": "ALL3.1 (B-ALL)", "result": "6.76 ± 6.7"}, {"measurement": "Net production of TRP metabolites in media samples: KA", "setting": "ALL3.1 (B-ALL)", "result": "−1.1 ± 3.4"}, {"measurement": "Net production of TRP metabolites in media samples: KYN", "setting": "ALL3.1 (B-ALL)", "result": "49.4 ± 114.2"}, {"measurement": "Net production of TRP metabolites in media samples: QUIN", "setting": "ALL3.1 (B-ALL)", "result": "−55.38 ± 21.2"}, {"measurement": "Net production of TRP metabolites in media samples: 3-HK", "setting": "RS4; 11 (B-ALL)", "result": "−1.96 ± 1.6"}, {"measurement": "Net production of TRP metabolites in media samples: KA", "setting": "RS4; 11 (B-ALL)", "result": "−6.3 ± 2.3"}, {"measurement": "Net production of TRP metabolites in media samples: KYN", "setting": "RS4; 11 (B-ALL)", "result": "−14 ± 22.7"}, {"measurement": "Net production of TRP metabolites in media samples: QUIN", "setting": "RS4; 11 (B-ALL)", "result": "40.46 ± 24^"}, {"measurement": "Net production of TRP metabolites in media samples: 3-HK", "setting": "HMC3 (microglia)", "result": "10.4 ± 18.6"}, {"measurement": "Net production of TRP metabolites in media samples: HAA", "setting": "HMC3 (microglia)", "result": "0.56 ± 1.8"}, {"measurement": "Net production of TRP metabolites in media samples: KA", "setting": "HMC3 (microglia)", "result": "4.48 ± 3.1"}, {"measurement": "Net production of TRP metabolites in media samples: KYN", "setting": "HMC3 (microglia)", "result": "899.26 ± 383^"}, {"measurement": "Net production of TRP metabolites in media samples: QUIN", "setting": "HMC3 (microglia)", "result": "42 ± 18.5"}, {"measurement": "Net production of TRP metabolites in media samples: 3-HK", "setting": "THP-1 (monocyte)", "result": "0.62 ± 1.4"}, {"measurement": "Net production of TRP metabolites in media samples: KA", "setting": "THP-1 (monocyte)", "result": "−8.98 ± 2.2"}, {"measurement": "Net production of TRP metabolites in media samples: KYN", "setting": "THP-1 (monocyte)", "result": "101.24 ± 17.6"}, {"measurement": "Net production of TRP metabolites in media samples: QUIN", "setting": "THP-1 (monocyte)", "result": "12.08 ± 32.1"}, {"measurement": "Net production of TRP metabolites in media samples: 3-HK", "setting": "BV173 (B-ALL)", "result": "9.94 ± 8.7"}, {"measurement": "Net production of TRP metabolites in media samples: KA", "setting": "BV173 (B-ALL)", "result": "−3.56 ± 4.1"}, {"measurement": "Net production of TRP metabolites in media samples: KYN", "setting": "BV173 (B-ALL)", "result": "257.66 ± 175.9"}, {"measurement": "Net production of TRP metabolites in media samples: QUIN", "setting": "BV173 (B-ALL)", "result": "6.36 ± 32.9"}, {"measurement": "Net production of TRP metabolites in media samples: 3-HK", "setting": "KARPAS231 (B-ALL)", "result": "5.48 ± 2.1"}, {"measurement": "Net production of TRP metabolites in media samples: HAA", "setting": "KARPAS231 (B-ALL)", "result": "30.76 ± 4.2"}, {"measurement": "Net production of TRP metabolites in media samples: KA", "setting": "KARPAS231 (B-ALL)", "result": "−9.3 ± 5.1"}, {"measurement": "Net production of TRP metabolites in media samples: KYN", "setting": "KARPAS231 (B-ALL)", "result": "200.48 ± 77.6"}, {"measurement": "Net production of TRP metabolites in media samples: QUIN", "setting": "KARPAS231 (B-ALL)", "result": "−42.74 ± 33.3"}, {"measurement": "Net production of TRP metabolites in media samples: 3-HK", "setting": "HCN2 (cortical neuron)", "result": "−4.46 ± 8.2"}, {"measurement": "Net production of TRP metabolites in media samples: HAA", "setting": "HCN2 (cortical neuron)", "result": "5.38 ± 0.4"}, {"measurement": "Net production of TRP metabolites in media samples: KA", "setting": "HCN2 (cortical neuron)", "result": "3.26 ± 6.1"}, {"measurement": "Net production of TRP metabolites in media samples: KYN", "setting": "HCN2 (cortical neuron)", "result": "105.24 ± 37"}, {"measurement": "Net production of TRP metabolites in media samples: QUIN", "setting": "HCN2 (cortical neuron)", "result": "13.26 ± 31.6"}]}
